In the supplement of paper PMC10307832 one finds relative viability data, which are given here for one cell line.

Holding throughout (assay): relative viability (nuclei count vs DMSO), 5 days (fraction); higher = more cells survive
Compound in test [1]: C1=CC=C(C(=C1)C2=CC=C(C=C2)C3=CSC4=C3C(=C(C(=O)N4)C#N)O)O + CS(=O)(=O)CCNCc1ccc(-c2ccc3ncnc(Nc4ccc(OCc5cccc(F)c5)c(Cl)c4)c3c2)o1 [Lapatinib] (partner 2 µM)
In short, it runs like this: (§1)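 Dosing by pin tool came one day after lung cancer cell lines were seeded in 1536-well plates, using either one drug or a fixed anchor-drug dose plus five library-drug doses (not always all listed) in √10 steps. After 5 days, nuclei were counted on 4× images. Relative viability is treated-well nuclei count divided by vehicle-well nuclei count, and values are medians of duplicate plates.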

Compound in test [2]: O=C(CCCCCCNC(=O)c1cnc(N(c2ccccc2)c2ccccc2)nc1)NO [Ricolinostat] + C[C@@H](Oc1cc(-c2cnn(C3CCNCC3)c2)cnc1N)c1c(Cl)ccc(F)c1Cl [Crizotinib] (partner 1 µM)
In short, it runs like this: as §1

Compound in test [3]: CC1=CN2C(=O)C=C(N=C2C(=C1)C(C)NC3=CC=CC=C3)N4CCOCC4 [TGX 221] + C[C@]1(O)C[C@@H](c2nc(-c3ccc4ccc(-c5ccccc5)nc4c3)c3c(N)nccn32)C1 [Linsitinib] (partner 1 µM)
In short, it runs like this:
as §1

Compound in test [4]: O=C(CCCCCCNC(=O)c1cnc(N(c2ccccc2)c2ccccc2)nc1)NO [Ricolinostat] + NC(=O)Nc1cc(-c2cccc(F)c2)sc1C(=O)N[C@H]1CCCNC1 [AZD7762] (partner 0.2 µM)
Put shortly:
as §1

Compound in test [5]: C1=CC=C(C(=C1)C2=CC=C(C=C2)C3=CSC4=C3C(=C(C(=O)N4)C#N)O)O + CC(=O)Nc1cccc(-n2c(=O)n(C3CC3)c(=O)c3c(Nc4ccc(I)cc4F)n(C)c(=O)c(C)c32)c1 [Trametinib] (partner 0.02 µM)
Put shortly:
as §1

As for NCI-H1792, the relative viability in test [1] (first compound 0.253 µM) amounted to 0.543; in test [1] (first compound 0.8 µM), 0.854; in test [1] (first compound 2.53 µM), 0.92; in test [1] (first compound 8 µM), 0.658; in test [2] (first compound 0.08 µM), 0.849; in test [2] (first compound 0.253 µM) it was 0.988. Also, the relative viability in test [2] (first compound 0.8 µM) is 0.913; in test [2] (first compound 2.53 µM), 1; in test [3] (first compound 0.08 µM) it was 0.501; in test [3] (first compound 0.253 µM), 0.553; in test [3] (first compound 0.8 µM) it was 0.361; in test [3] (first compound 2.53 µM) it was 0.435. Moreover, the relative viability was found to be 0.326 in test [3] (first compound 8 µM); 0.716 in test [4] (first compound 0.253 µM); 0.581 in test [4] (first compound 0.8 µM); 0.375 in test [4] (first compound 2.53 µM); 0.536 in test [5] (first compound 0.253 µM); 0.424 in test [5] (first compound 0.8 µM). Further, the relative viability worked out at 0.364 in test [5] (first compound 2.53 µM) and 0.165 in test [5] (first compound 8 µM).
